# Measurements as given in article PMC11189555, “Aryl amino acetamides prevent Plasmodium falciparum ring development via targeting the lipid-transfer protein PfSTART1” (Nature Communications, 2024).
# Read-outs that look alike come from different tables or passages of the source.
# Columns and labels:
# [1] = test system: PopE-F10 M-833 resistant clone (PfSTART1 N330K); assay: Growth inhibition assay (72 h, LDH activity); type: cell-based, Plasmodium falciparum; conditions: for inhibition at 0.15625 µM: M-833 0.15625 uM
# Experimental: The drug was then removed, and parasites were allowed to recover. Another cycle of drug treatment (3 μM M-833) was then resumed. The resistant lines were cloned out by limiting dilution (diluting the culture into a 96-well plate to achieve an average of ~0.3 parasites per well), prior to growth inhibition assays and genomic DNA (gDNA) extraction (DNeasy Blood and Tissue kit (Qiagen)[18].
# Parasite growth assays with inhibitory compounds were performed as per[11] and are fully described in the Supplementary Information. […]
# Growth inhibition assays. Synchronised ring-stage parasites (0.3-0.6% parasitemia, 2% haematocrit) were grown for 72 h in a serial-dilution of the compound under […]
# and compound 4. Note that M-833 was first purchased from MolPort (MolPort -002-267-916) then made in-house at WEHI: the differences observed in EC50s across experiments are attributed to the different batches of M -833. For some experiments, 0, 0.25 or 2.5 mM of glucosamine (GlcN) was also added. Experiments were set up in technical duplicates or triplicates. Following a freeze -thaw cycle, lactate dehydrogenase (LDH) activity was assessed as an indicator of parasite growt h 5. 30 μL of parasite culture was incubated for 30 min in the dark with 75 μL Malstat mixture (0.1 M Tris pH 9.0, 20 g/L lactic acid, pH 7.5, 0.2% Triton-X100, 0.5 g/L acetylpyridine adenine dinucleotide (APAD, Sigma), 200 μg/mL nitroblue tetrazolium (NBT; Sigma), 1 μg/mL phenozine ethosulfate (PES; Sigma)). Absorbance was then measured at 650 nm, transformed using the formula below, plotted against the logarithm of the concentrations, and a non-linear regression (log(inhibitor) vs. response, variable slope) was calculated using GraphPad Prism to assess the half-inhibitory […]
# Growth inhibition % = (1 − average(sample)− average(uRBC)) ∗ 100 […]
# The DMSO samples were also used to assess growth of parasite in the presence of 0.25 and 2.5 mM GlcN (normalised by DMSO in 0 mM GlcN). […]
# in vitro = conditions: human
compound,measurement,setting,value
Cc1cc(Cl)c(S(=O)(=O)N2CCCC2)cc1OCC(=O)NC1CCCCC1 [M-833],inhibition at 0.15625 µM,"[1]; Plasmodium falciparum, Pop E-F10 replicate 1, read-out: % Inhibition",-16.5%
same,inhibition at 0.15625 µM,"[1]; Plasmodium falciparum, Pop E-F10 replicate 3, read-out: % Inhibition",-8.13%
same,inhibition at 0.3125 µM,"[1]; Plasmodium falciparum, M-833 0.3125 uM, Pop E-F10 replicate 1, read-out: % Inhibition",-13%
same,inhibition at 0.3125 µM,"[1]; Plasmodium falciparum, M-833 0.3125 uM, Pop E-F10 replicate 3, read-out: % Inhibition",-13.3%
same,inhibition at 0.625 µM,"[1]; Plasmodium falciparum, M-833 0.625 uM, Pop E-F10 replicate 1, read-out: % Inhibition",-17%
same,inhibition at 0.625 µM,"[1]; Plasmodium falciparum, M-833 0.625 uM, Pop E-F10 replicate 3, read-out: % Inhibition",-4.75%
same,inhibition at 1.25 µM,"[1]; Plasmodium falciparum, M-833 1.25 uM, Pop E-F10 replicate 1, read-out: % Inhibition",-5.92%
same,inhibition at 1.25 µM,"[1]; Plasmodium falciparum, M-833 1.25 uM, Pop E-F10 replicate 3, read-out: % Inhibition",-4.33%
same,inhibition at 2.5 µM,"[1]; Plasmodium falciparum, M-833 2.5 uM, Pop E-F10 replicate 1, read-out: % Inhibition",-1.55%
same,inhibition at 2.5 µM,"[1]; Plasmodium falciparum, M-833 2.5 uM, Pop E-F10 replicate 3, read-out: % Inhibition",-5.28%
same,inhibition at 5 µM,"[1]; Plasmodium falciparum, M-833 5 uM, Pop E-F10 replicate 1, read-out: % Inhibition",5.15%
same,inhibition at 5 µM,"[1]; Plasmodium falciparum, M-833 5 uM, Pop E-F10 replicate 3, read-out: % Inhibition",3.59%
same,inhibition at 10 µM,"[1]; Plasmodium falciparum, M-833 10 uM, Pop E-F10 replicate 1, read-out: % Inhibition",27.8%
same,inhibition at 10 µM,"[1]; Plasmodium falciparum, M-833 10 uM, Pop E-F10 replicate 3, read-out: % Inhibition",19.9%
same,inhibition at 0.0390625 µM,"[1]; Plasmodium falciparum, Pop E-F10 replicate 1, M-833 0.0390625 uM",-3%
same,inhibition at 0.078125 µM,"[1]; Plasmodium falciparum, Pop E-F10 replicate 1, M-833 0.078125 uM",-0.769%
same,inhibition at 0.15625 µM,"[1]; Plasmodium falciparum, Pop E-F10 replicate 1",-1.15%
same,inhibition at 0.3125 µM,"[1]; Plasmodium falciparum, Pop E-F10 replicate 1, M-833 0.3125 uM",-1.42%
same,inhibition at 0.625 µM,"[1]; Plasmodium falciparum, Pop E-F10 replicate 1, M-833 0.625 uM",-0.0475%
same,inhibition at 1.25 µM,"[1]; Plasmodium falciparum, Pop E-F10 replicate 1, M-833 1.25 uM",1.29%
same,inhibition at 2.5 µM,"[1]; Plasmodium falciparum, Pop E-F10 replicate 1, M-833 2.5 uM",3.54%
same,inhibition at 5 µM,"[1]; Plasmodium falciparum, Pop E-F10 replicate 1, M-833 5 uM",13.5%
same,inhibition at 10 µM,"[1]; Plasmodium falciparum, Pop E-F10 replicate 1, M-833 10 uM",32.5%
same,Normalised to DMSO,"[1]; Pop E-F10 replicate 1, M-833 0.0390625 uM",103
same,Normalised to DMSO,"[1]; Pop E-F10 replicate 1, M-833 0.078125 uM",100.769
same,Normalised to DMSO,"[1]; Pop E-F10 replicate 1, M-833 0.3125 uM",101.424
same,Normalised to DMSO,"[1]; Pop E-F10 replicate 1, M-833 0.625 uM",100.047
same,Normalised to DMSO,"[1]; Pop E-F10 replicate 1, M-833 1.25 uM",98.7091
same,Normalised to DMSO,"[1]; Pop E-F10 replicate 1, M-833 2.5 uM",96.4594
same,Normalised to DMSO,"[1]; Pop E-F10 replicate 1, M-833 5 uM",86.4832
same,Normalised to DMSO,"[1]; Pop E-F10 replicate 1, M-833 10 uM",67.4893
same,(av-uRBC) / (DMSO-uRBC) x100,"[1]; PopE-F10, 3.04832 nM, biological replicate 1",111.434
same,(av-uRBC) / (DMSO-uRBC) x100,"[1]; PopE-F10, 3.04832 nM, biological replicate 2",114.392
same,(av-uRBC) / (DMSO-uRBC) x100,"[1]; PopE-F10, 3.04832 nM, biological replicate 3",116.409
same,(av-uRBC) / (DMSO-uRBC) x100,"[1]; PopE-F10, 9.14495 nM, biological replicate 1",115.6
same,(av-uRBC) / (DMSO-uRBC) x100,"[1]; PopE-F10, 9.14495 nM, biological replicate 2",114.392
same,(av-uRBC) / (DMSO-uRBC) x100,"[1]; PopE-F10, 9.14495 nM, biological replicate 3",132.26
same,(av-uRBC) / (DMSO-uRBC) x100,"[1]; PopE-F10, 27.4348 nM, biological replicate 1",114.804
same,(av-uRBC) / (DMSO-uRBC) x100,"[1]; PopE-F10, 27.4348 nM, biological replicate 2",115.461
same,(av-uRBC) / (DMSO-uRBC) x100,"[1]; PopE-F10, 27.4348 nM, biological replicate 3",121.608
same,(av-uRBC) / (DMSO-uRBC) x100,"[1]; PopE-F10, 82.3045 nM, biological replicate 1",112.716
same,(av-uRBC) / (DMSO-uRBC) x100,"[1]; PopE-F10, 82.3045 nM, biological replicate 2",116.595
same,(av-uRBC) / (DMSO-uRBC) x100,"[1]; PopE-F10, 82.3045 nM, biological replicate 3",121.195
same,(av-uRBC) / (DMSO-uRBC) x100,"[1]; PopE-F10, 246.914 nM, biological replicate 1",110.71
same,(av-uRBC) / (DMSO-uRBC) x100,"[1]; PopE-F10, 246.914 nM, biological replicate 2",117.042
same,(av-uRBC) / (DMSO-uRBC) x100,"[1]; PopE-F10, 246.914 nM, biological replicate 3",120.187
same,(av-uRBC) / (DMSO-uRBC) x100,"[1]; PopE-F10, 740.741 nM, biological replicate 1",108.694
same,(av-uRBC) / (DMSO-uRBC) x100,"[1]; PopE-F10, 740.741 nM, biological replicate 2",116.419
same,(av-uRBC) / (DMSO-uRBC) x100,"[1]; PopE-F10, 740.741 nM, biological replicate 3",115.329
same,(av-uRBC) / (DMSO-uRBC) x100,"[1]; PopE-F10, 2222.22 nM, biological replicate 1",107.392
same,(av-uRBC) / (DMSO-uRBC) x100,"[1]; PopE-F10, 2222.22 nM, biological replicate 2",111.175
same,(av-uRBC) / (DMSO-uRBC) x100,"[1]; PopE-F10, 2222.22 nM, biological replicate 3",110.489
same,(av-uRBC) / (DMSO-uRBC) x100,"[1]; PopE-F10, 6666.67 nM, biological replicate 1",97.5292
same,(av-uRBC) / (DMSO-uRBC) x100,"[1]; PopE-F10, 6666.67 nM, biological replicate 2",97.5177
same,(av-uRBC) / (DMSO-uRBC) x100,"[1]; PopE-F10, 6666.67 nM, biological replicate 3",73.4437
same,(av-uRBC) / (DMSO-uRBC) x100,"[1]; PopE-F10, 20000 nM, biological replicate 1",52.2279
same,(av-uRBC) / (DMSO-uRBC) x100,"[1]; PopE-F10, 20000 nM, biological replicate 2",44.7285
same,(av-uRBC) / (DMSO-uRBC) x100,"[1]; PopE-F10, 20000 nM, biological replicate 3",18.154
same,Fold change compared to 3D7,"[1]; Supplementary Table 1, EC50 on PopE-F10 vs 3D7",> 128 fold
same,EC50,"[1]; Supplementary Table 1, PopE-F10 (N330K), 72 h",> 10 µM
same,CC50,in vitro,> 40 µM
